Assay results reported in publication PMC5344682, “Tuned SMC Arms Drive Chromosomal Loading of Prokaryotic Condensin” (Molecular Cell, 2017).

Assays:
Test in all cases: PK/LDH coupled ATPase assay, NADH absorbance, Hill fit
Assay type in all cases: biochemical
Smc (Bs Smc) [1] = target: T1, Smc (Bs Smc) (Bacillus subtilis, UniProt P51834, DEL400-486/DEL685-771); conditions: 50 mM HEPES-KOH pH 7.5, 50 mM NaCl, 2 mM MgCl2, 25 C, 0.3 uM protein, ATP varied; Mini-Smc(1-399, 487-684, 772-1186), construct taken from plasmid pSG2916
T1 construct: full length 1186 residues, untagged, E. coli BL21-Gold(DE3), homodimer; plasmid pSG1497 pET-22b Smc; no ScpAB or DNA

Smc (Bs Smc) [2] = target: T2, Smc (Bs Smc) (Bacillus subtilis, UniProt P51834); conditions: 50 mM HEPES-KOH pH 7.5, 50 mM NaCl, 2 mM MgCl2, 25 C, 0.3 uM protein, ATP varied; peptide insertion, plasmid pSG2965; matching strain printed as smc(1-394)-SGPGGGGGRQQAS-smc(395-1186)
T2 construct: full length 1186 residues, untagged, E. coli BL21-Gold(DE3), homodimer; plasmid pSG1497 pET-22b Smc; no ScpAB or DNA

Smc (Bs Smc) [3] = target: T3, Smc (Bs Smc) (Bacillus subtilis, UniProt P51834, DEL436-486/DEL685-735); conditions: 50 mM HEPES-KOH pH 7.5, 50 mM NaCl, 2 mM MgCl2, 25 C, 0.3 uM protein, ATP varied; Mini-Smc(1-435, 487-684, 736-1186), construct taken from plasmid pSG2915
T3 construct: full length 1186 residues, untagged, E. coli BL21-Gold(DE3), homodimer; plasmid pSG1497 pET-22b Smc; no ScpAB or DNA

Smc (Bs Smc) [4] = target: T2, Smc (Bs Smc); conditions: 50 mM HEPES-KOH pH 7.5, 50 mM NaCl, 2 mM MgCl2, 25 C, 0.3 uM protein, ATP varied; peptide insertion, plasmid pSG2966; matching strain printed as smc(1-479)-SGPGGGGGRQYQA-smc(480-1186)
Smc (Bs Smc) [5] = target: T4, Smc (Bs Smc) (Bacillus subtilis, UniProt P51834, DEL396-486/DEL685-775); conditions: 50 mM HEPES-KOH pH 7.5, 50 mM NaCl, 2 mM MgCl2, 25 C, 0.3 uM protein, ATP varied; Mini-Smc(1-395, 487-684, 776-1186), construct taken from plasmid pSG2917
T4 construct: full length 1186 residues, untagged, E. coli BL21-Gold(DE3), homodimer; plasmid pSG1497 pET-22b Smc; no ScpAB or DNA

Smc (Bs Smc) [6] = target: T5, Smc (Bs Smc) (Bacillus subtilis, UniProt P51834, DEL439-486/DEL685-732); conditions: 50 mM HEPES-KOH pH 7.5, 50 mM NaCl, 2 mM MgCl2, 25 C, 0.3 uM protein, ATP varied; Mini-Smc(1-438, 487-684, 733-1186), construct taken from plasmid pSG2914
T5 construct: full length 1186 residues, untagged, E. coli BL21-Gold(DE3), homodimer; plasmid pSG1497 pET-22b Smc; no ScpAB or DNA

T2 sequence (P51834 whole entry): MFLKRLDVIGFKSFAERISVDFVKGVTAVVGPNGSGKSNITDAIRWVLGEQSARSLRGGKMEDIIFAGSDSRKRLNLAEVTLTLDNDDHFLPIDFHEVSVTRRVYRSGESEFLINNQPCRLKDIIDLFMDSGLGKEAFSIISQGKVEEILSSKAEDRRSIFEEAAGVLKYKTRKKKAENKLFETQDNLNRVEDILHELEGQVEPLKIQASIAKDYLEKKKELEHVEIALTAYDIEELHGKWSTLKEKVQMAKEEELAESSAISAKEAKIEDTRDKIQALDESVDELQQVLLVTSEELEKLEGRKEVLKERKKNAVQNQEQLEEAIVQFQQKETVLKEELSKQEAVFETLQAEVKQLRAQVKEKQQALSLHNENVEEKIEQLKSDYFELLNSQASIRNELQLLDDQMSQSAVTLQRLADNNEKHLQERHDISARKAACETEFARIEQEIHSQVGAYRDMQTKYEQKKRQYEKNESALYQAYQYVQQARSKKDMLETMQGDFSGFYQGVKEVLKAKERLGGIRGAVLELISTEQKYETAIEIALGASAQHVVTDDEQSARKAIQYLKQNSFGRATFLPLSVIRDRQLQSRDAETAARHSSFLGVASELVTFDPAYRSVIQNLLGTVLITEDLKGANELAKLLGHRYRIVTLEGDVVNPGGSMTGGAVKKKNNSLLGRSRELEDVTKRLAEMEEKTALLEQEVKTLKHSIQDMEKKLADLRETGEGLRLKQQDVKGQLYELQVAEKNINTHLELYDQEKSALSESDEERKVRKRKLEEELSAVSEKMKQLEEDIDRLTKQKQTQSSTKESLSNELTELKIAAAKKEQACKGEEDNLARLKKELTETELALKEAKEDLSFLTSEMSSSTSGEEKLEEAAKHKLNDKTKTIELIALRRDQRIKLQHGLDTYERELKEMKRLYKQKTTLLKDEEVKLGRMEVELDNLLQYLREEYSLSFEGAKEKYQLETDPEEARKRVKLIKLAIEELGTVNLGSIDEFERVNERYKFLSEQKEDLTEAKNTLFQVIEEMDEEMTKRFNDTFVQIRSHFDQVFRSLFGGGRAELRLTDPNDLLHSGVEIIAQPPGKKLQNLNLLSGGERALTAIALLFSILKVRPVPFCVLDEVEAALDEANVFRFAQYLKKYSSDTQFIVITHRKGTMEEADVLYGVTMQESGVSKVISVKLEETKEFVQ
T4 sequence (P51834 other isoform, or with tags, fused parts or gaps DEL396-486/DEL685-775): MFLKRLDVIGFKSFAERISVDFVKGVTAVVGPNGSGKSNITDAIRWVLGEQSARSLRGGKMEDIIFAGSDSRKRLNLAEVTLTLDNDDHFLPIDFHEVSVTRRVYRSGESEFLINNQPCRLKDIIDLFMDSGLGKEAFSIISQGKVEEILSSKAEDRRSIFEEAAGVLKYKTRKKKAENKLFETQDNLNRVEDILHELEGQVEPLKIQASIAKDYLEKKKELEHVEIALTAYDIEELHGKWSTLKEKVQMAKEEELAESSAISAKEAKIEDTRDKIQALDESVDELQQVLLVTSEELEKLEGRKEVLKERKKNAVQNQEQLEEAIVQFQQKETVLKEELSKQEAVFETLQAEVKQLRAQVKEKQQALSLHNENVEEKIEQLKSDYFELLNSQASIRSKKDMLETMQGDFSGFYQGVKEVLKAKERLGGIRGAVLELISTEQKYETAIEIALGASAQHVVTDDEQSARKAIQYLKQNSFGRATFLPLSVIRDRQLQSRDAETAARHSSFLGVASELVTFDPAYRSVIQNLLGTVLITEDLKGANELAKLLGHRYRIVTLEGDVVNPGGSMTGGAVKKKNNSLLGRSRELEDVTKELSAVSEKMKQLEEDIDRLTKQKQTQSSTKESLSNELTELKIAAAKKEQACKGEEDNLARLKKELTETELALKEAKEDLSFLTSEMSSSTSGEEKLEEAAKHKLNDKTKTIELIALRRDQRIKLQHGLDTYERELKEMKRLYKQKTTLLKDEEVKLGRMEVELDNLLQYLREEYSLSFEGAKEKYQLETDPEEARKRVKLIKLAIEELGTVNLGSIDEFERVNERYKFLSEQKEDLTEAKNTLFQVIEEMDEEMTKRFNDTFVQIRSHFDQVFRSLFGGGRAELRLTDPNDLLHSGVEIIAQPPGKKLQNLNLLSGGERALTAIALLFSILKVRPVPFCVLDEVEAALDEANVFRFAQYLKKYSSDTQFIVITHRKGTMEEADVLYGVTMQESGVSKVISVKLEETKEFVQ
T1 sequence (P51834 other isoform, or with tags, fused parts or gaps DEL400-486/DEL685-771): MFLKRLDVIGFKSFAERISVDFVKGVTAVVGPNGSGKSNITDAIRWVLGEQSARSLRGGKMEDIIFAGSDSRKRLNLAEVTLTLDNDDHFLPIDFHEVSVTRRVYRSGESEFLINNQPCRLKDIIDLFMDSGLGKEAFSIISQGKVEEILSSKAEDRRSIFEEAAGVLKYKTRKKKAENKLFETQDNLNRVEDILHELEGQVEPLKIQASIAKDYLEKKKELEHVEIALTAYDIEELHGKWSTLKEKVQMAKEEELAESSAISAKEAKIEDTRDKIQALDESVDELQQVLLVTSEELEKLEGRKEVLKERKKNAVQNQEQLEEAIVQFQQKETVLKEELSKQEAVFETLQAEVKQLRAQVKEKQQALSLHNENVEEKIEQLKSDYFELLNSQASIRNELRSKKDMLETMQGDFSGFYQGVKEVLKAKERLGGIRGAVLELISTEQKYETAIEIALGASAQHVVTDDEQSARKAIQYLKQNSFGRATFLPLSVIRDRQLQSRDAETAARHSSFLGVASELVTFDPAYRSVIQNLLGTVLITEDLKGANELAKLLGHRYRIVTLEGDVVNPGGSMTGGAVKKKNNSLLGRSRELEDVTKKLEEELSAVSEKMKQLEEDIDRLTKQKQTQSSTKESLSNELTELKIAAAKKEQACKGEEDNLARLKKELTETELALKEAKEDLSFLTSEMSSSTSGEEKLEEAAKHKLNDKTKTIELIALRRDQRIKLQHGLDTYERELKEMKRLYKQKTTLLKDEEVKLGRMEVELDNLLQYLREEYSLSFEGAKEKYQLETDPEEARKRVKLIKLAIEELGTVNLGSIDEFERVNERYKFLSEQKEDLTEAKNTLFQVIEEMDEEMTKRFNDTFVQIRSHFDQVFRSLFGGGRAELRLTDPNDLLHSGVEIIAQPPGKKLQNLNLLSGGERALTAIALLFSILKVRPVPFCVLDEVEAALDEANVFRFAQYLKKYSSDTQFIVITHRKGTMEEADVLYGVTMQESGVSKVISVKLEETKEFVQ
T3 sequence (P51834 other isoform, or with tags, fused parts or gaps DEL436-486/DEL685-735): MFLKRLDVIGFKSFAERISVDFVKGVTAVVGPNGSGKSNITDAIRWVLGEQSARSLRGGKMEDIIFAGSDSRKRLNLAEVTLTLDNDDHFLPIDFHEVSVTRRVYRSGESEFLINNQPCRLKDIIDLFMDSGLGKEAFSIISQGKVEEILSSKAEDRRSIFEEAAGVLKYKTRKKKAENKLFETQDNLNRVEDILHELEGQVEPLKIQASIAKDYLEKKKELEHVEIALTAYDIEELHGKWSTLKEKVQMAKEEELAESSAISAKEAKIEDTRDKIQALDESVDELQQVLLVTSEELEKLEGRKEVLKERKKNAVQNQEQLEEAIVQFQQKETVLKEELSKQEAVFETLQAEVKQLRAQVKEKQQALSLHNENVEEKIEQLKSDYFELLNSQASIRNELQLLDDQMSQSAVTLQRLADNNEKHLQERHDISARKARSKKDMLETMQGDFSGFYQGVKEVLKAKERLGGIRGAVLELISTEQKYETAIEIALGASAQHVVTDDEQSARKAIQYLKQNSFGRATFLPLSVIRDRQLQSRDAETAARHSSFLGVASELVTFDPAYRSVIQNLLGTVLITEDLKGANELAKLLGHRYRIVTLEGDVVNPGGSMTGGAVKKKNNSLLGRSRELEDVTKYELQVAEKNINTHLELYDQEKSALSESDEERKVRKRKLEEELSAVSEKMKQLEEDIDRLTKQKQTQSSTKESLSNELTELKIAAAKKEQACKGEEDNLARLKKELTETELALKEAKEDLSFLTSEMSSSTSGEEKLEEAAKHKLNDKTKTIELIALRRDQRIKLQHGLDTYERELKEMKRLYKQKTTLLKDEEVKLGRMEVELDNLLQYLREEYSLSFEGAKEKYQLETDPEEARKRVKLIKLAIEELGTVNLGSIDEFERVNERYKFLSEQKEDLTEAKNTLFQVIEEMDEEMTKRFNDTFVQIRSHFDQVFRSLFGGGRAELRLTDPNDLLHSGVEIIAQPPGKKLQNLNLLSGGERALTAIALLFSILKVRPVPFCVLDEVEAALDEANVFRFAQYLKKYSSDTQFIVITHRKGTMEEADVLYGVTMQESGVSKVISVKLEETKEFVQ

**Q.** How did the K0.5 (Smc (Bs Smc) [1]) turn out when `Nc1ncnc2c1ncn2[C@@H]1O[C@H](COP(=O)(O)OP(=O)(O)OP(=O)(O)O)[C@@H](O)[C@H]1O` [ATP] was run?
**A.** We then purified Mini-Smc proteins to measure their ability to hydrolyze ATP in vitro

**Q.** And the K0.5 (Smc (Bs Smc) [2])?
**A.** Smc proteins with peptide insertions are functional ATPases

**Q.** And the K0.5 (Smc (Bs Smc) [3])?
**A.** We then purified Mini-Smc proteins to measure their ability to hydrolyze ATP in vitro

**Q.** And the K0.5 (Smc (Bs Smc) [4])?
**A.** Smc proteins with peptide insertions are functional ATPases

**Q.** What about the K0.5 (Smc (Bs Smc) [5]) of the same compound?
**A.** We then purified Mini-Smc proteins to measure their ability to hydrolyze ATP in vitro

**Q.** And the K0.5 (Smc (Bs Smc) [6])?
**A.** We then purified Mini-Smc proteins to measure their ability to hydrolyze ATP in vitro
